Positions of bridges follow the written chain, without caps; N, C: chain ends. Non-standard residues stand in square brackets, D forms with d. Residues, ends and D or L forms follow the SMILES beside them. Triazole bridges read from a SMILES are 1,4-linked. Chains are numbered I, II in the order given. No end group written: not given here. *: point of attachment. Biotin = O=C1N[C@H]2[C@H](CS[C@H]2CCCCC(=O)*)N1; Lys(N3) = [N-]=[N+]=NCCCC[C@H](N)C(=O)O; PEG5 = NCCOCCOCCOCCOCCOCCC(=O)O; Pra = C#CC[C@H](N)C(=O)O Bounds are passed on as bounds.

From article PMC4408887 (Nature chemistry, 2015) come the findings set out here.

The subject of assay [1] is Akt1^E17K relative to Akt2^E17K. Nature of the assay: Point ELISA, Akt1 and Akt2 isoforms. It counts as binding. The following applies: 100 nM protein, triplicate.
Assay [2] relates to E17K versus WT PH Domain of Akt1 - PIP3 interaction. Nature of the assay: PIP3 agarose inhibition, E17K relative to WT. It counts as biochemical. The following applies: triligand 0.1-1000 eq.
For a further assay, the system named is WT or E17K GST-Akt1. Nature of the assay: Point ELISA in human serum. It counts as binding. The following applies: 150 nM protein, 0%, 1% and 2% human serum in TBS.
Assay [3] has as its target label-modified yleaf peptide used in fluorescence polarization. Nature of the assay: fluorescence polarisation.
Assay [4] addresses WT 33-mer PH Domain epitope of Akt1 (Homo sapiens, UniProt P31749). Nature of the assay: Fluorescence polarization binding to WT 33-mer epitope.
For the next assay, the target named is full length Akt1 (WT) (UniProt P31749 1-480). Nature of the assay: fluorescence polarisation.
Another assay concerns the target full length Akt1^E17K (UniProt P31749 1-480, E17K). Nature of the assay: fluorescence polarisation.

Consider `CC[C@@H](C)[C@@H](NC(=O)CCOCCOCCOCCOCCOCCNC(=O)CCCC[C@@H]1SC[C@@H]2NC(=O)N[C@@H]21)C(=O)N[C@@H](C(=O)N[C@H](CC(=O)O)C(=O)N[C@H](C)C(=O)N[C@H](CCC(=O)O)C(=O)N[C@@H](Cc1cn(CCCC[C@H](NC(C)=O)C(=O)N[C@H](Cc2ccc(O)cc2)C(=O)N[C@H](CC(C)C)C(=O)N[C@H](CCC(=O)O)C(=O)N[C@H](C)C(=O)N[C@H](Cc2ccccc2)C(=O)N[C@@H](Cc2cn(CCCC[C@H](NC(C)=O)C(=O)N[C@H](Cc3ccc(O)cc3)C(=O)N[C@H](CCCCN)C(=O)N[C@H](CO)C(=O)N[C@H](Cc3ccc(O)cc3)C(N)=O)nn2)C(=O)O)nn1)C(=O)O)C(C)C` [triligand] (I: Ac-[Lys(N3)][dY][dL][dE][dA][dF][Pra]-OH / II: {Biotin-PEG5}-[dI][dV][dD][dA][dE][Pra]-OH / III: Ac-[Lys(N3)][dY][dK][dS][dY]-NH2; triazole I:1-II:6, I:7-III:1; C-terminus assumed), for which the “preference for Akt1^E17K relative to Akt2^E17K” value in assay [1] is “slight preference for Akt1^E17K relative to the Akt2^E17K”. The “selective inhibition of E17K relative to WT” value in assay [2] is on record as “significant selective inhibition of the E17K mutant relative to the WT”. In addition, in the assay with WT or E17K GST-Akt1, the “reduction in binding efficiency in human serum” value is given as “very little reduction in binding efficiency”.

In assay [3], “E17K mutant 6-His-tagged 33-mer PH Domain peptide fragment of Akt1 (from UniProt P31749 1-33)” displayed a Kd of 328 nM.

With `CC(C)C[C@@H](NC(=O)[C@H](N)Cc1ccc(O)cc1)C(=O)N[C@H](CCC(=O)O)C(=O)N[C@H](C)C(=O)N[C@H](Cc1ccccc1)C(N)=O` [yleaf] (H-[dY][dL][dE][dA][dF]-NH2), in assay [4], binding was put at a Kd of 2800 ± 840 nM. Molecule “WT 6-His-tagged 33-mer PH Domain peptide fragment of Akt1 (from UniProt P31749 1-33)” displayed a Kd in assay [3] of 2800 nM.

B1: label-modified yleaf peptide used in fluorescence polarization (peptide)
peptide: [dY][dL][dE][dA][dF]
modifications: also: label-modified, label not given here
Turning to B1, the Kd is above 1000 nM in the assay with full length Akt1 (WT) and 54 ± 7 nM with full length Akt1^E17K.
